The results in this text go back to ChEMBL document CHEMBL5625228, “Design, synthesis, and bioactivity evaluation of novel amide/sulfonamide derivatives as potential anti-inflammatory agents against acute lung injury and ulcerative colitis” (Eur J Med Chem, 2023).

The source made the active and inactive calls. The calls are words filed in the database; no cut-off is given here.

Series [1] concerns Mus musculus. The experiment in a line: Antiinflammatory activity against DSS-induced acute colitis C57BL/6 mouse model assessed as reduction in IL-6 level in serum at 5 mg/kg, po pretreated with DSS for 7 days followed by compound addition for every day for 10 days by ELISA analysis. Particulars: time 10.0 day. It counts as functional, organism-based. (In general: An ELISA detects its analyte on a solid surface through an enzyme-linked reagent.)

Series [2] is described as follows: AUC (0 to t) in Sprague-Dawley rat at 1 mg/kg, iv measured upto 24 hrs by LC-MS analysis. It counts as ADME, organism-based. Particulars: in vivo.
Series [3] concerns Mus musculus. The series is described as follows: Antiinflammatory activity against DSS-induced acute colitis C57BL/6 mouse model assessed as attenuation of white pulp at 5 mg/kg, po pretreated with DSS for 7 days followed by compound addition for every day for 10 days by H and E staining based analysis. It counts as functional, organism-based. Particulars: time 10.0 day.
Series [4] in a line: Apparent volume of distribution in Sprague-Dawley rat at 1 mg/kg, iv measured upto 24 hrs by LC-MS analysis. The format is ADME, organism-based. Particulars: in vivo, read-out: Vz.
The test system of series [5] is Mus musculus. The experiment in a line: Antiinflammatory activity against LPS-induced acute lung injury C57BL/6 mouse model assessed as decrease in IL-6 mRNA level in lung at 20 mg/kg, IG preincubated with compound for 30 mins followed by LPS-induction and measured after 6 hrs by qPCR analysis. The format is functional, organism-based. Particulars: time 390.0 min.

For series [6], the system named is J774.A1. The experiment in a line: Antiinflammatory activity against LPS-induced mouse J774.A1 cells assessed as downregulation of IL-6 mRNA level preincubated with compound for 30 mins followed by LPS-induction and measured after 6 hrs by qPCR analysis. The format is functional, cell-based. As to conditions: time 390.0 min. For orientation: Quantitative PCR measures a nucleic acid by following its amplification.

The subject of series [7] is J774.A1. The experiment in a line: Antiinflammatory activity against mouse J774.A1 cells assessed as inhibition of LPS-induced TNF-alpha production pretreated with compound for 30 mins followed by LPS induction and measured after 24 hrs by ELISA analysis. It counts as functional. As to conditions: time 1470 min; 24.5 h.
Series [8] has as its system Mus musculus. The series is described as follows: Antiinflammatory activity against LPS-induced acute lung injury C57BL/6 mouse model assessed as alveolar septa thickness in lung at 20 mg/kg, IG preincubated with compound for 30 mins followed by LPS-induction and measured after 6 hrs by H and E staining based analysis. The format is functional, organism-based. Particulars: time 390.0 min.

Series [9] is described as follows: AUC (0 to infinity) in Sprague-Dawley rat at 10 mg/kg, po measured upto 24 hrs by LC-MS analysis. It counts as ADME, organism-based. As to conditions: in vivo.
The test system of series [10] is Mus musculus. The series is described as follows: Antiinflammatory activity against LPS-induced acute lung injury C57BL/6 mouse model assessed as inflammatory infiltration in lung at 20 mg/kg, IG preincubated with compound for 30 mins followed by LPS-induction and measured after 6 hrs by H and E staining based analysis. It counts as functional, organism-based. Particulars: time 390.0 min.

Series [11] in a line: Clearance in Sprague-Dawley rat at 10 mg/kg, po measured upto 24 hrs by LC-MS analysis. It counts as ADME, organism-based. As to conditions: in vivo.

Take `O=[N+]([O-])c1ccc(N2CCN(c3ccc(S(=O)(=O)NCc4ccccn4)cc3[N+](=O)[O-])CC2)cc1`: the outcome with Mus musculus [1], with Mus musculus [3], in the series with Mus musculus [5], in the series with J774.A1 [6], in the series with Mus musculus [8] and in the series with Mus musculus [10] was Active. The compound further came in with an AUC(0-t) at 24 h in series [2] of 1110 ng·h/mL. For the same compound, in [4], the Vd turned out to be 2.3 L/kg. Besides, in the series with J774.A1 [7], the “inhibition (INH)” value amounted to 70.09%. Besides, the AUC in [9] amounted to 1183.5 ng·h/mL. The same compound gave a clearance in series [11] of 150 mL/min/kg.

Usually AUC(0-t) stands for the area under the concentration-time curve up to a stated or last time point. A lower AUC(0-t) goes with low exposure. A word on the AUC: it is concentration integrated over time.
